Laboratory results published in the supplement of paper PMC10307832.

What was measured:
Test in all cases: relative viability (nuclei count vs DMSO), 5 days (fraction); higher = more cells survive
[1] = compound: CC(=O)c1c(C)c2cnc(Nc3ccc(N4CCNCC4)cn3)nc2n(C2CCCC2)c1=O [Palbociclib] + N=C(N)NC(=N)NCCc1ccccc1 [Phenformin] (partner 250 µM)
How it was run: (§1)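 Relative viability equals treated-well nuclei counts divided by vehicle-well nuclei counts. Counts came from 4× images of lung cancer cell lines grown in 1536-well plates for 5 days after pin-tool dosing on the day after seeding. Dosing used one drug alone or a fixed anchor-drug dose plus five library-drug doses (not always all listed) in √10 steps, and values are medians of duplicate plates.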

[2] = compound: CC(=O)c1c(C)c2cnc(Nc3ccc(N4CCNCC4)cn3)nc2n(C2CCCC2)c1=O [Palbociclib] + Cc1nc(NC(=O)N2CCC[C@H]2C(N)=O)sc1-c1ccnc(C(C)(C)C(F)(F)F)c1 [Alpelisib] (partner 2 µM)
How it was run: as §1

[3] = compound: CC(=O)c1c(C)c2cnc(Nc3ccc(N4CCNCC4)cn3)nc2n(C2CCCC2)c1=O [Palbociclib] + O=C(c1cc(Cc2n[nH]c(=O)c3ccccc23)ccc1F)N1CCN(C(=O)C2CC2)CC1 [Olaparib] (partner 8 µM)
How it was run: as §1

[4] = compound: CC(=O)c1c(C)c2cnc(Nc3ccc(N4CCNCC4)cn3)nc2n(C2CCCC2)c1=O [Palbociclib] + C[C@]1(O)C[C@@H](c2nc(-c3ccc4ccc(-c5ccccc5)nc4c3)c3c(N)nccn32)C1 [Linsitinib] (partner 1 µM)
How it was run: as §1

| Cell Line | relative viability ([1]; first compound 0.01 µM) | relative viability ([1]; first compound 0.1 µM) | relative viability ([1]; first compound 0.3162 µM) | relative viability ([1]; first compound 1 µM) | relative viability ([2]; first compound 0.01 µM) | relative viability ([2]; first compound 0.03162 µM) | relative viability ([2]; first compound 0.1 µM) | relative viability ([2]; first compound 0.3162 µM) | relative viability ([2]; first compound 1 µM) | relative viability ([3]; first compound 0.01 µM) | relative viability ([3]; first compound 0.03162 µM) | relative viability ([3]; first compound 0.1 µM) | relative viability ([3]; first compound 0.3162 µM) | relative viability ([3]; first compound 1 µM) | relative viability ([4]; first compound 0.01 µM) | relative viability ([4]; first compound 0.03162 µM) | relative viability ([4]; first compound 0.1 µM) | relative viability ([4]; first compound 0.3162 µM) | relative viability ([4]; first compound 1 µM) | relative viability ([1]; first compound 0.03162 µM) |
| --- | --- | --- | --- | --- | --- | --- | --- | --- | --- | --- | --- | --- | --- | --- | --- | --- | --- | --- | --- | --- |
| PC-14 | 0.817 | 0.549 | 0.528 | 0.282 | 1.02 | 0.936 | 0.782 | 0.762 | 0.671 | 0.31 | 0.296 | 0.311 | 0.214 | 0.176 | 1.04 | 0.847 | 0.869 | 0.802 | 0.689 | – |
| RERF-LC-KJ | 0.419 | 0.418 | 0.459 | 0.485 | 0.893 | 0.866 | 0.827 | 0.798 | 0.867 | 0.896 | 0.83 | 0.919 | 0.942 | 0.821 | 0.954 | 0.887 | 0.919 | 1.04 | 0.958 | 0.414 |
| SK-LU-1 | 0.546 | 0.309 | 0.314 | 0.254 | 1.02 | 0.921 | 0.581 | 0.599 | 0.464 | 0.51 | 0.425 | 0.428 | 0.371 | 0.263 | 0.975 | 1.06 | 0.777 | 0.771 | 0.627 | 0.418 |
| SK-MES-1 | 0.661 | 0.455 | 0.376 | 0.18 | 0.841 | 0.815 | 0.507 | 0.56 | 0.356 | 0.695 | 0.57 | 0.446 | 0.343 | 0.205 | 1.01 | 1 | 0.791 | 0.772 | 0.609 | 0.573 |
| SW 1573 | 0.364 | 0.234 | 0.216 | 0.219 | 0.676 | 0.744 | 0.571 | 0.57 | 0.49 | 0.463 | 0.452 | 0.454 | 0.359 | 0.291 | 0.69 | 0.733 | 0.639 | 0.669 | 0.5 | 0.324 |
| UMC-11 | 0.303 | 0.292 | 0.292 | 0.24 | 0.996 | 0.931 | 0.604 | 0.459 | 0.254 | 0.332 | 0.375 | 0.341 | 0.298 | 0.136 | 1.02 | 0.894 | 0.888 | 0.536 | 0.326 | 0.278 |
